# Assay results from ChEMBL document CHEMBL1201862, “PubChem BioAssay data set” (2004).
#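 Cultured in 96-well plates, cells were exposed to test compound for 48 hours across five concentrations. GI50 is the concentration that inhibits growth by half.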 The source made the active and inactive calls. No stated cut-off is given here; in the data, active = GI50 up to about 1.1 µM and inactive = higher.
# Key:
# Experiment in all cases: growth of human tumour cells (NCI), 48 h
# SF-268 = test system: SF-268
# MDA-MB-231 = test system: MDA-MB-231
# LOX IMVI = test system: LOX IMVI
# ACHN = test system: ACHN
# OVCAR-3 = test system: OVCAR-3
# NCI/ADR-RES = test system: NCI/ADR-RES
# MDA-N = test system: MDA-N
# IGROV-1 = test system: IGROV-1
# HCC 2998 = test system: HCC 2998
# SK-MEL-5 = test system: SK-MEL-5
# DU-145 = test system: DU-145
# K562 = test system: K562
# SW-620 = test system: SW-620
# SK-OV-3 = test system: SK-OV-3
# SNB-19 = test system: SNB-19
# HT-29 = test system: HT-29
# NCI-H460 = test system: NCI-H460
# TK-10 = test system: TK-10
# OVCAR-8 = test system: OVCAR-8
# MDA-MB-435 = test system: MDA-MB-435
# SN12C = test system: SN12C
# MCF7 = test system: MCF7
# Hs-578T = test system: Hs-578T
# PC-3 = test system: PC-3
# BT-549 = test system: BT-549
# NCI-H23 = test system: NCI-H23
# CAKI-1 = test system: CAKI-1
# OVCAR-4 = test system: OVCAR-4
# UO-31 = test system: UO-31
# CCRF-CEM = test system: CCRF-CEM
# NCI-H522 = test system: NCI-H522
# COLO 205 = test system: COLO 205
# UACC-257 = test system: UACC-257
# 786-0 = test system: 786-0
# Malme-3M = test system: Malme-3M
# SNB-75 = test system: SNB-75
# NCI-H226 = test system: NCI-H226
# HCT-116 = test system: HCT-116
# HCT-15 = test system: HCT-15
# SK-MEL-2 = test system: SK-MEL-2
# SF-539 = test system: SF-539
# A549 = test system: A549
# SF-295 = test system: SF-295
# MOLT-4 = test system: MOLT-4
# SK-MEL-28 = test system: SK-MEL-28
# RPMI-8226 = test system: RPMI-8226
# RXF 393 = test system: RXF 393
# EKVX = test system: EKVX
# HL-60 = test system: HL-60
# T47D = test system: T47D
# HOP-62 = test system: HOP-62
# SR = test system: SR
# OVCAR-5 = test system: OVCAR-5
# M14 = test system: M14
# U-251 = test system: U-251
# KM12 = test system: KM12
# HOP-92 = test system: HOP-92
# UACC-62 = test system: UACC-62
smiles,measurement,setting,value
CCOC1CCN(C(=O)c2ccccc2)O1 (stereo not given),GI50,SF-268,> 10 µM (inactive)
same,GI50,MDA-MB-231,> 10 µM (inactive)
same,GI50,LOX IMVI,> 10 µM (inactive)
same,GI50,ACHN,> 10 µM (inactive)
same,GI50,OVCAR-3,> 10 µM (inactive)
same,GI50,NCI/ADR-RES,> 10 µM (inactive)
same,GI50,MDA-N,> 10 µM (inactive)
same,GI50,IGROV-1,> 10 µM (inactive)
same,GI50,HCC 2998,> 10 µM (inactive)
same,GI50,SK-MEL-5,> 10 µM (inactive)
same,GI50,DU-145,> 10 µM (inactive)
same,GI50,K562,> 10 µM (inactive)
same,GI50,SW-620,> 10 µM (inactive)
same,GI50,SK-OV-3,> 10 µM (inactive)
same,GI50,SNB-19,> 10 µM (inactive)
same,GI50,HT-29,> 10 µM (inactive)
same,GI50,NCI-H460,> 10 µM (inactive)
same,GI50,TK-10,> 10 µM (inactive)
same,GI50,OVCAR-8,> 10 µM (inactive)
same,GI50,MDA-MB-435,> 10 µM (inactive)
same,GI50,SN12C,> 10 µM (inactive)
same,GI50,MCF7,> 10 µM (inactive)
same,GI50,Hs-578T,> 10 µM (inactive)
same,GI50,PC-3,> 10 µM (inactive)
same,GI50,BT-549,> 10 µM (inactive)
same,GI50,NCI-H23,> 10 µM (inactive)
same,GI50,CAKI-1,> 10 µM (inactive)
same,GI50,OVCAR-4,> 10 µM (inactive)
same,GI50,UO-31,> 10 µM (inactive)
same,GI50,CCRF-CEM,> 10 µM (inactive)
same,GI50,NCI-H522,> 10 µM (inactive)
same,GI50,COLO 205,> 10 µM (inactive)
same,GI50,UACC-257,> 10 µM (inactive)
same,GI50,786-0,> 10 µM (inactive)
same,GI50,Malme-3M,> 10 µM (inactive)
same,GI50,SNB-75,> 10 µM (inactive)
same,GI50,NCI-H226,> 10 µM (inactive)
same,GI50,HCT-116,> 10 µM (inactive)
same,GI50,HCT-15,> 10 µM
same,GI50,SK-MEL-2,> 10 µM (inactive)
same,GI50,SF-539,> 10 µM (inactive)
same,GI50,A549,> 10 µM (inactive)
same,GI50,SF-295,> 10 µM (inactive)
same,GI50,MOLT-4,> 10 µM (inactive)
same,GI50,SK-MEL-28,> 10 µM (inactive)
same,GI50,RPMI-8226,> 10 µM (inactive)
same,GI50,RXF 393,> 10 µM (inactive)
same,GI50,EKVX,> 10 µM (inactive)
same,GI50,HL-60,> 10 µM (inactive)
same,GI50,T47D,> 10 µM (inactive)
same,GI50,HOP-62,> 10 µM (inactive)
same,GI50,SR,> 10 µM (inactive)
same,GI50,OVCAR-5,> 10 µM (inactive)
same,GI50,M14,> 10 µM (inactive)
N#C/C(=C\c1ccc(Cl)cc1)c1nc2ccccc2c(=O)[nH]1,GI50,SF-268,51.6 µM (inactive)
same,GI50,MDA-MB-231,33.8 µM (inactive)
same,GI50,LOX IMVI,> 100 µM (inactive)
same,GI50,ACHN,65.8 µM (inactive)
same,GI50,NCI/ADR-RES,> 100 µM (inactive)
same,GI50,MDA-N,> 100 µM (inactive)
same,GI50,IGROV-1,> 100 µM (inactive)
same,GI50,HCC 2998,> 100 µM (inactive)
same,GI50,SK-MEL-5,> 100 µM (inactive)
same,GI50,DU-145,> 100 µM (inactive)
same,GI50,K562,> 100 µM (inactive)
same,GI50,SW-620,> 100 µM (inactive)
same,GI50,SK-OV-3,> 100 µM (inactive)
same,GI50,SNB-19,85.9 µM (inactive)
same,GI50,HT-29,> 100 µM (inactive)
same,GI50,NCI-H460,> 100 µM (inactive)
same,GI50,TK-10,76 µM (inactive)
same,GI50,OVCAR-8,> 100 µM (inactive)
same,GI50,MDA-MB-435,> 100 µM (inactive)
same,GI50,U-251,52.5 µM (inactive)
same,GI50,SN12C,> 100 µM (inactive)
same,GI50,MCF7,> 100 µM (inactive)
same,GI50,Hs-578T,17.9 µM (inactive)
same,GI50,PC-3,> 100 µM (inactive)
same,GI50,BT-549,23.4 µM (inactive)
same,GI50,CAKI-1,> 100 µM (inactive)
same,GI50,OVCAR-4,> 100 µM (inactive)
same,GI50,KM12,> 100 µM (inactive)
same,GI50,HOP-92,11 µM (inactive)
same,GI50,UO-31,> 100 µM (inactive)
same,GI50,CCRF-CEM,> 100 µM (inactive)
same,GI50,NCI-H522,37.4 µM (inactive)
same,GI50,COLO 205,> 100 µM (inactive)
same,GI50,UACC-257,> 100 µM (inactive)
same,GI50,786-0,44.4 µM (inactive)
same,GI50,Malme-3M,> 100 µM (inactive)
same,GI50,SNB-75,17.1 µM (inactive)
same,GI50,UACC-62,43.7 µM (inactive)
same,GI50,NCI-H226,> 100 µM (inactive)
same,GI50,HCT-116,> 100 µM (inactive)
same,GI50,HCT-15,> 100 µM
same,GI50,SK-MEL-2,> 100 µM (inactive)
same,GI50,SF-539,> 100 µM (inactive)
same,GI50,A549,> 100 µM (inactive)
same,GI50,SF-295,47.4 µM (inactive)
same,GI50,MOLT-4,> 100 µM (inactive)
same,GI50,SK-MEL-28,> 100 µM (inactive)
same,GI50,RPMI-8226,> 100 µM (inactive)
same,GI50,RXF 393,81.5 µM (inactive)
same,GI50,EKVX,> 100 µM (inactive)
same,GI50,HL-60,> 100 µM (inactive)
same,GI50,T47D,> 100 µM (inactive)
same,GI50,HOP-62,33 µM (inactive)
same,GI50,SR,> 100 µM (inactive)
same,GI50,OVCAR-5,> 100 µM (inactive)
same,GI50,M14,> 100 µM (inactive)
